Test results as given in the NIST ThermoML archive (doi:10.1016/j.tca.2018.08.017).
Where “and” joins values, the source holds several entries; their conditions need not be identical. Equal values may be shown once.

Conditions: 101.33 kPa, Liquid

CCCCCCCCCCCCCCCCCC [octadecane]
viscosity
Conditions | Concentric cylinders viscometry | Cone and plate viscometry
299.75 K | – | 3.95 mPa·s
299.95 K | – | 3.92 mPa·s
300.05 K | – | 4.21 mPa·s
300.15 K | – | 3.91 mPa·s and 4.12 mPa·s
300.35 K | – | 3.89 mPa·s and 4.09 mPa·s
300.55 K | – | 3.86 mPa·s
300.65 K | – | 4.06 mPa·s and 4.17 mPa·s
300.75 K | – | 3.84 mPa·s
300.85 K | – | 3.84 mPa·s and 4.04 mPa·s
300.95 K | – | 3.82 mPa·s
300.96 K | 4.095 mPa·s | –
301.15 K | – | 3.81 mPa·s and 4.02 mPa·s and 4.13 mPa·s
301.29 K | 4.068 mPa·s [middle of 4 runs] | –
301.35 K | – | 3.8 mPa·s and 4 mPa·s
301.36 K | 4.052 mPa·s | –
301.55 K | – | 3.8 mPa·s
301.65 K | – | 3.98 mPa·s and 4.09 mPa·s
301.75 K | – | 3.76 mPa·s and 3.74 mPa·s
301.76 K | 4.011 mPa·s | –
301.84 K | 4.009 mPa·s | –
301.85 K | – | 3.96 mPa·s
301.95 K | – | 3.77 mPa·s
302.05 K | – | 3.71 mPa·s
302.15 K | – | 3.76 mPa·s and 3.93 mPa·s and 4.04 mPa·s
302.18 K | 3.967 mPa·s | –
302.35 K | – | 3.72 mPa·s and 3.91 mPa·s
302.45 K | – | 3.69 mPa·s
302.55 K | – | 3.73 mPa·s
302.58 K | 3.927 mPa·s | –
302.64 K | 3.926 mPa·s | –
302.65 K | – | 3.88 mPa·s and 4.01 mPa·s
302.75 K | – | 3.71 mPa·s
302.85 K | – | 3.85 mPa·s and 3.66 mPa·s
302.95 K | – | 3.69 mPa·s
302.96 K | 3.884 mPa·s | –
303.15 K | – | 3.72 mPa·s [middle of 6 runs]
303.35 K | – | 3.67 mPa·s and 3.81 mPa·s
303.38 K | 3.837 mPa·s [middle of 5 runs] | –
303.4 K | 3.838 mPa·s | –
303.42 K | 3.846 mPa·s | –
303.55 K | – | 3.63 mPa·s and 3.61 mPa·s
303.65 K | – | 3.78 mPa·s and 3.93 mPa·s
303.75 K | – | 3.64 mPa·s
303.81 K | 3.799 mPa·s | –
303.85 K | – | 3.77 mPa·s and 3.59 mPa·s
303.95 K | – | 3.65 mPa·s
304.15 K | – | 3.6 mPa·s and 3.75 mPa·s and 3.89 mPa·s
304.19 K | 3.769 mPa·s | –
304.21 K | 3.762 mPa·s | –
304.25 K | – | 3.56 mPa·s
304.35 K | – | 3.58 mPa·s and 3.73 mPa·s
304.55 K | – | 3.57 mPa·s and 3.53 mPa·s
304.58 K | 3.727 mPa·s | –
304.65 K | – | 3.7 mPa·s and 3.85 mPa·s
304.75 K | – | 3.56 mPa·s
304.85 K | – | 3.69 mPa·s
304.92 K | 3.694 mPa·s | –
304.95 K | – | 3.53 mPa·s and 3.51 mPa·s
305.08 K | 3.678 mPa·s | –
305.15 K | – | 3.55 mPa·s and 3.67 mPa·s and 3.81 mPa·s
305.25 K | – | 3.48 mPa·s
305.35 K | – | 3.5 mPa·s and 3.64 mPa·s
305.46 K | 3.642 mPa·s | –
305.55 K | – | 3.5 mPa·s
305.65 K | – | 3.62 mPa·s and 3.47 mPa·s and 3.77 mPa·s
305.7 K | 3.624 mPa·s | –
305.75 K | – | 3.48 mPa·s
305.84 K | 3.606 mPa·s | –
305.85 K | – | 3.6 mPa·s
305.95 K | – | 3.46 mPa·s
306.05 K | – | 3.43 mPa·s
306.15 K | – | 3.47 mPa·s and 3.58 mPa·s and 3.72 mPa·s
306.23 K | 3.571 mPa·s | –
306.35 K | – | 3.47 mPa·s and 3.56 mPa·s and 3.42 mPa·s
306.42 K | 3.556 mPa·s | –
306.55 K | – | 3.44 mPa·s
306.61 K | 3.538 mPa·s | –
306.65 K | – | 3.54 mPa·s and 3.69 mPa·s
306.75 K | – | 3.42 mPa·s and 3.39 mPa·s
306.85 K | – | 3.52 mPa·s
306.95 K | – | 3.43 mPa·s
306.98 K | 3.502 mPa·s | –
307.05 K | – | 3.36 mPa·s
307.15 K | – | 3.42 mPa·s and 3.5 mPa·s and 3.66 mPa·s
307.3 K | 3.478 mPa·s | –
307.35 K | – | 3.4 mPa·s and 3.49 mPa·s
307.37 K | 3.469 mPa·s | –
307.45 K | – | 3.35 mPa·s
307.55 K | – | 3.39 mPa·s
307.65 K | – | 3.47 mPa·s and 3.62 mPa·s
307.72 K | 3.438 mPa·s | –
307.75 K | – | 3.38 mPa·s and 3.32 mPa·s
307.84 K | 3.426 mPa·s and 3.427 mPa·s | –
307.85 K | 3.426 mPa·s | 3.45 mPa·s
307.87 K | 3.426 mPa·s | –
307.93 K | 3.424 mPa·s | –
307.95 K | – | 3.35 mPa·s
308.07 K | 3.413 mPa·s | –
308.11 K | 3.404 mPa·s | –
308.15 K | – | 3.35 mPa·s [middle of 6 runs]
308.35 K | – | 3.31 mPa·s and 3.42 mPa·s
308.55 K | – | 3.29 mPa·s and 3.28 mPa·s
308.59 K | 3.363 mPa·s | –
308.65 K | – | 3.39 mPa·s and 3.53 mPa·s
308.75 K | – | 3.29 mPa·s
308.83 K | 3.349 mPa·s | –
308.85 K | – | 3.37 mPa·s and 3.26 mPa·s
308.95 K | – | 3.29 mPa·s
308.96 K | 3.333 mPa·s | –
309.15 K | – | 3.27 mPa·s and 3.36 mPa·s and 3.49 mPa·s
309.25 K | – | 3.25 mPa·s
309.3 K | 3.306 mPa·s | –
309.35 K | – | 3.26 mPa·s and 3.34 mPa·s
309.55 K | – | 3.28 mPa·s and 3.22 mPa·s
309.58 K | 3.286 mPa·s | –
309.65 K | – | 3.32 mPa·s and 3.45 mPa·s
